Laboratory results reported in US20160039852A1, “THERAPEUTIC USES OF BISPHOSPHONATES” (THE UNIVERSITY OF SHEFFIELD, priority 2013, published 2016).
Entries after “also recorded” stand apart in the source; their conditions may differ.

How the values were obtained:
[1] = test system: human mesenchymal stem cells (hMSC); assay: Expression of osteogenic and adipogenic differentiation markers in hMSC; type: cell-based; details: CBFA-1, OPN, ALP, OC, LPL, PPAR-γ normalised to L-32; 14 days supplements
[2] = test system: murine multiple myeloma line, 5TGM1; assay: γH2AX DNA damage foci in 5TGM1 multiple myeloma line after irradiation; type: cell-based; details: irradiated in presence versus absence of Zol, 4 h after irradiation, n=3
[3] = test system: human mesenchymal stem cells (hMSC); assay: hMSC growth kinetics, cumulative population doublings with time in culture; type: cell-based
[4] = test system: human mesenchymal stem cells (hMSC); assay: Colony Forming Unit-Fibroblast assay (CFU-F), clonogenic ability of hMSC; type: cell-based; details: 14 days, listed as Zol
Procedure: Human MSC from established cultures were plated at 10 cells/cm^2 in duplicates in MSC medium. The plates were incubated for 14 days at 37° C. in 5% carbon dioxide in air. At day 14 cultures were stained with Wright's Giemsa stain (VWR International, Leicestershire, UK). Briefly, media was aspirated and the plates were washed with PBS (Gibco). The plates were air dried for 5 minutes and fixed with methanol (Fisher Scientific, Loughborough, UK) for 5 minutes. Wright's Geimsa stain (VWR International) was thereafter added to the plates for 5 minutes and then plates were washed under running tap water. The purple stained colonies were counted using an inverted light microscope (Leica Microsystems, UK). Colonies containing a minimum of 50 cells were considered as one Colony forming unit-fibroblast (CFU-F).

[5] = test system: normal human dermal fibroblasts; assay: γH2AX DNA damage foci in human dermal fibroblasts after irradiation; type: cell-based; details: 1Gy, Zol (1 μM)
Procedure: (B) Number of yH2AX DNA damage foci in human dermal fibroblasts (n=4 cultures) not irradiated (UI) or exposed to irradiation (IR) 1Gy in the presence or absence of Zol (1 μM) and with the addition of Farnesol (FOH) or geranylgeraniol (GGOH).

[6] = test system: mTOR pathway; assay: Western blot of mTOR pathway effectors in hMSC; type: cell-based, human
Procedure: Three times 10^6 hMSC were lysed in mammalian cell lysis buffer (Mammalian cell lysis kit, Sigma-Aldrich, Dorset, UK) containing 250 mM Tris-5 mM EDTA, 750 mM sodium chloride, 0.5% sodium dodecyl sulphate, 2.5% deoxycholic acid and 5% Igepal supplemented with 10 μl of Proteinase inhibitors cocktail (Sigma-Aldrich, Dorset, UK) containing 4-(2-aminoethyl) benzenesulfonyl fluoride (AEBSF), pepstatin A, bestatin, leupeptin, aprotinin and trans-epoxysuccinyl-L-leucyl-amido(4-guanidino)-butane (E-64) according to manufacturer instruction. Phosphatase inhibitor cocktail (Sigma) was also added when preparing lysates for the detection of AKT, pAKT, P70S6K, and p-P70S6K.
Protein lysates (50 μg) were diluted in equal volume of 2× Laemmli buffer (Gibco) containing Dithiothreitol (DTT, Sigma,UK). The samples were heated at 95° C. for 5 minutes and loaded on a 12% Tris-glycine gel. After electro-blotting, membranes were blocked with 5% Bovine serum albumin (BSA) in 0.1% Tween 20 in PBS (PBS-T) for detection of glyceraldehyde-3-phosphate dehydrogenase (GAPDH) and 5% dry milk in PBS-T for detection of unprenylated RAP1A (Santacruz Biotechnology, Santa Cruz, USA). In case of P-AKT, P-70S6K membranes were blocked with 5%BSA in 1× tris buffered saline and 0.1% tween-20 (TBS-T), where for AKT and P70S6K membranes were blocked with 5% dry milk in TBS-T. All membranes were blocked for 2 hours at room temperature. The antibody sc1482 for the detection of RAP1A (Santacruz, USA) was diluted in TBS-T at 1:1000. Antibodies for the detection of AKT, P-AKT, P-70S6K AND PP70S6K, (Cell Signalling Technologies, USA) were diluted at 1:1000. GAPDH antibody (Abcam, Cambridge) was diluted at 1:30000. […] Detection was carried out using enhanced chemi-luminescence plus ECL reaction kit (GE Healthcare, Buckinghamshire, UK) and quantification of protein expression was carried out using image J software.
To test this, the inventors assessed the phosphorylation state of two effectors downstream of TORC1 and TORC2, p-P70S6K and pAKT (Ser473) respectively (FIG. 7A), in hMSC in presence or absence of Zol. […]

[7] = test system: zebrafish embryo caudal fin; assay: Zebrafish tail amputation and regeneration following irradiation; type: in vivo, Zebrafish (Danio Rerio H)
Procedure: Embryos from wild-type Zebrafish (Danio Rerio H) AB strain were collected at 16 cell stage (˜1.5 hours post fertilisation (hpf)) and grown in E3 Medium at 28° C. Embryos were treated with Zoledronate (1 μM) and/or FOH, GGOH at 24 hpf. DNA damage was induced by exposure to ^137Cs Gamma source at 48 hpf and after irradiation the embryo tails were amputated and the embryos were then incubated at 28° C. for a further 12 hrs in the presence of the chemicals. At the end of this period the chemicals were washed off and the embryos were incubated in fresh medium with no chemicals. The embryos were grown up to 120 hpf, following which they were fixed in 4% PFA overnight and then mounted in 100% glycerol. The tail lengths of embryos were measured taking the anal region as starting reference point and the end of the fin fold as the ending point of measurement.

[8] = hMSC exposed to Zol (1 μM) for 72 h, n=3

## O=P(O)(O)C(O)(Cn1ccnc1)P(=O)(O)O [Zoledronate]
[1]
  expression of osteogenic and adipogenic differentiation markers: increased
[2]
  number of γH2AX DNA damage foci: No significant difference
[3]; hMSC grown in presence of Zol (1 μM), PBS cultures senesced after 21-27 PDs, n=3
  population doublings after which cultures were still proliferating: 29-36 PDs
[3]; irradiated at 3 Gy, Zol for 3 days, washed off 12 h later
  ability of hMSC to proliferate and differentiate following irradiation: rescues hMSCs ability to proliferate and differentiate
[3]; versus PBS control, listed as Zol
  hMSC life span / time of proliferation in culture: extension of life span; also recorded: proliferated for a longer time than control cells
[4]; hMSC at passage 8, not irradiated, versus PBS control
  number of clonogenic progenitors (CFU-F): significant increase; also recorded: higher clonogenic ability
[4]; hMSC irradiated at 1, 3 and 5Gy versus non irradiated, in presence of Zol
  number of CFU-F after irradiation (clonogenic ability): no significant difference; also recorded: complete rescue of the clonogenic ability
[5]
  DNA repair ability following irradiation (γH2AX foci): enhances DNA repair ability
[6]; hMSC exposed to Zol
  mTOR signaling (p-mTOR, p-P70S6K, p-AKT, p-FOXO3A), FIG. 12: inhibition of mTOR signaling
[6]; [8]
  p-P70S6K: significant decrease
  pAKT (Ser473): significant decrease
[7]; 1Gy irradiation, Zol 1 μM, FIG. 6
  regeneration of the caudal fin at 120 hpf: enhances tail regeneration
[7]; 1 and 3 Gy irradiation (data not shown)
  regeneration of the caudal fin at 120 hpf: same outcome
[7]; 5 Gy irradiation, Zol 1 μM, n=15/group
  regeneration of the caudal fin at 120 hpf: enhances tail regeneration
[7]; 5 Gy irradiation, Zol 1 μM, n=15/group, listed as Zol
  regeneration of the caudal fin at 120 hpf: rescued
